We go through eight compounds from patent US20150313824A1, “SKIN CARE COMPOSITION” (Conopco, Inc., d/b/a UNILEVER, priority 2013, published 2015).

Structures are written as SMILES.

In the first assay the test system is EA.Hy926 cells. Briefly: Measurement of intracellular nitric oxide using flow-cytometry (DAF FM-DA). In kind it is cell-based, human. The note with it: summary of the data in Table-1. The method, then:
The cultured human endothelial cell line EA.Hy926 cells were procured from American Type Culture Collection ([…]) and were cultured in DMEM (Sigma) supplemented with 2 mM L-glutamine, 100 U/ml penicillin, 100 μg/ml streptomycin and 10% vol/vol FBS (Gibco, Invitrogen). Cells were cultured at 37° C. in 95% humidified air with 5% CO2. After attaining 70-80% confluence, the cells were sub-cultured by trypsinization (0.25% Tryp-EDTA, for 2-3 min). For experimental purpose, cells were seeded onto 24 well tissue culture plates (CLS3524 Sigma). […] Measurement of Intracellular Nitric Oxide Using Flow-Cytometry Experimental Flow: […] EAHy926 (5×10^5) cells were seed into 24 well tissue culture plate and allowed to adhere for 12-16 hrs. 2. After adherence, cells were treated with or without 4.41 μg/ml (10 μM) folic acid and incubated for 24 hrs in DMEM without FBS. 3. The cells in 24 well tissue culture plates were loaded with DAF FM-DA (1 μM) for 30 min, washed twice with serum free medium. 4. Subsequently, cells were stimulated with different concentration of EGCG for 30 mins and washed twice with serum free medium. 5. The stimulated cells were trypsinized with 0.25% Trypsin-EDTA and fixed with 2% PFA for 15 min. 6. The suspension of cells were acquired using flow-cytometry. A population of 10,000 cells were gated and segregated based on their relative fluorescence intensities using FACS Calibur (BD; SanDiego). The mean yield of two distinct populations was measured and compared with the respective population in untreated cells. The data on the Nitric Oxide activity is summarized in Table-1 for the various compositions which may be […] catechins (EGCG) alone at various concentrations or folic acid alone or EGCG in combination with folic acid.
In the case of `O=C(O[C@@H]1Cc2c(O)cc(O)cc2O[C@@H]1c1cc(O)c(O)c(O)c1)c1cc(O)c(O)c(O)c1` [EGCG, (−)-epigallocatechin gallate], the “NO activity, effect of increasing concentration or of combination (in words)” value was “increases NO activity till an EGCG concentration of about 11 μg and thereafter the NO activity decreases”.

Staying with this assay, now noted: with or without folic acid pretreatment 24 hrs, then EGCG stimulation 30 mins, DAF FM-DA fluorescence compared with untreated cells (1.0 = no increase over untreated sample).
`O=C(O[C@@H]1Cc2c(O)cc(O)cc2O[C@@H]1c1cc(O)c(O)c(O)c1)c1cc(O)c(O)c(O)c1` [Example 2, EGCG]: the NO activity was 2.87.
For the compound `O=C(O[C@@H]1Cc2c(O)cc(O)cc2O[C@@H]1c1cc(O)c(O)c(O)c1)c1cc(O)c(O)c(O)c1` [Example 3, EGCG], the NO activity is 2.98.
Still for that read-out and setting: in the case of `O=C(O[C@@H]1Cc2c(O)cc(O)cc2O[C@@H]1c1cc(O)c(O)c(O)c1)c1cc(O)c(O)c(O)c1` [Example 4, EGCG] it was 3.75; in that of `O=C(O[C@@H]1Cc2c(O)cc(O)cc2O[C@@H]1c1cc(O)c(O)c(O)c1)c1cc(O)c(O)c(O)c1` [Example 5, EGCG], 3.58.
Same read-out and setting: in the case of `O=C(O[C@@H]1Cc2c(O)cc(O)cc2O[C@@H]1c1cc(O)c(O)c(O)c1)c1cc(O)c(O)c(O)c1` [Example 6, EGCG] it was 2.32; in that of `O=C(O[C@@H]1Cc2c(O)cc(O)cc2O[C@@H]1c1cc(O)c(O)c(O)c1)c1cc(O)c(O)c(O)c1` [Example 7, EGCG], 1.64.
The same measure, in the same setting: in the case of `O=C(O[C@@H]1Cc2c(O)cc(O)cc2O[C@@H]1c1cc(O)c(O)c(O)c1)c1cc(O)c(O)c(O)c1` [Example 8, EGCG] it was 0.63.
